Assay results as given in US10112929B2, “Lactams as inhibitors of rock” (BRISTOL-MYERS SQUIBB COMPANY, priority 2015, dated 2018).
Structures can show the parent of a compound that is named as a salt.

Target: ROCK2 (Homo sapiens (Human), UniProt O75116)
Test: biochemical
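Also: rho kinase enzyme reaction halted with EDTA, phospho- and non-phospho peptide separated for read-out, kinase activity inhibition derived across a dose-response series, DMSO under 2%.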

Chain of ROCK2 (O75116 whole entry, species assumed): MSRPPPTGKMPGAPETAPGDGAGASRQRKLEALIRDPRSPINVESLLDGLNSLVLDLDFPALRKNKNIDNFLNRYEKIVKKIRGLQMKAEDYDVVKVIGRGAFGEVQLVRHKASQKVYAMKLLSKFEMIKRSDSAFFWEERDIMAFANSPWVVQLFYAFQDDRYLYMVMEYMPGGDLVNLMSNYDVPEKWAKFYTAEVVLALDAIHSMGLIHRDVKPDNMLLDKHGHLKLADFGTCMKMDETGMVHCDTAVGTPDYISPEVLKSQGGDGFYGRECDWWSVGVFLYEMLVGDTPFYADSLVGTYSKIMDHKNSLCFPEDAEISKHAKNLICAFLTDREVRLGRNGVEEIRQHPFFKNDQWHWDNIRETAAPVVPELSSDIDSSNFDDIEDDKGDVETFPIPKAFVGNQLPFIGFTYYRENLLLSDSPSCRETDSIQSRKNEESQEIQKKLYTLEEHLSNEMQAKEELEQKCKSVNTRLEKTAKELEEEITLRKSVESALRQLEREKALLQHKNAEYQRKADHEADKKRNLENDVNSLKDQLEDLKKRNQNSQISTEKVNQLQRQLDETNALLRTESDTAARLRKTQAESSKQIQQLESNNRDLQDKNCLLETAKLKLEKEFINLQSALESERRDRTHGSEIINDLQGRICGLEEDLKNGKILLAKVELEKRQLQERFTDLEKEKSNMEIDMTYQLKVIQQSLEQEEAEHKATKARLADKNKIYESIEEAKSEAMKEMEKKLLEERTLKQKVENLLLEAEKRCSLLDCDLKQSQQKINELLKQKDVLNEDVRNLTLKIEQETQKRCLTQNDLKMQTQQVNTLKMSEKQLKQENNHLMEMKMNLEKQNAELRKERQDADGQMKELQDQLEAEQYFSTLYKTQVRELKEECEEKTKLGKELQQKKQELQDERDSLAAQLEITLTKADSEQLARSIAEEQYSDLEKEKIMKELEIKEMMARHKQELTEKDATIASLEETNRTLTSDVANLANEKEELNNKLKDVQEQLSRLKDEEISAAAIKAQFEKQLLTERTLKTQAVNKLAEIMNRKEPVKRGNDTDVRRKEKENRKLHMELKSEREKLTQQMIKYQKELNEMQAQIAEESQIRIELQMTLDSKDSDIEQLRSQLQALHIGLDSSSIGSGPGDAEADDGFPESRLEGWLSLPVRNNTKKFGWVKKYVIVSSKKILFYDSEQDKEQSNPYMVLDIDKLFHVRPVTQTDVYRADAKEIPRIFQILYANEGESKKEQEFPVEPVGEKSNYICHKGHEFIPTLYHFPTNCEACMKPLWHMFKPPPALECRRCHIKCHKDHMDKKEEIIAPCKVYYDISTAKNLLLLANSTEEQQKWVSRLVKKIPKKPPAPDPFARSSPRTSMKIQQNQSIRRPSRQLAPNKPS

Structure (SMILES) | IC50 [nM]
Cc1nc(N2CCC(Nc3cccc(OCC4CC4)c3)C2=O)ccc1-c1cn[nH]c1 (single isomer, unassigned) [Example 190, 3-((3-(cyclopropylmethoxy)phenyl)amino)-1-(6-methyl-5-(1H-pyrazol-4-yl)pyridin-2-yl)pyrrolidin-2-one] | 10 to 100
COc1cc(F)cc(NC2CCN(c3ccc(-c4cn[nH]c4)cc3Cl)C2=O)c1 (single isomer, unassigned) [Example 168, 1-(2-chloro-4-(1H-pyrazol-4-yl)phenyl)-3 ((3-fluoro-5-methoxyphenyl)amino) pyrrolidin-2-one] | 100 to 2200
COc1cccc(NC2CCN(c3cc(C)c(-c4cn[nH]c4)cn3)C2=O)c1 (racemic) [Example 200, 3-((3-methoxyphenyl)amino)-1-(4-methyl-5-(1H-pyrazol-4-yl)pyridin-2-yl)pyrrolidin-2-one] | 100 to 2200
COc1ccc(F)c(NC2CCN(c3ccc(-c4cn[nH]c4)cc3F)C2=O)c1 (single isomer, unassigned) [Example 340, 1-(2-fluoro-4-(1H-pyrazol-4-yl)phenyl)-3-((2-fluoro-5-methoxyphenyl)amino) pyrrolidin-2-one] | 100 to 2200
O=C1C(NCc2cccc(F)c2)CCN1c1ccc(-c2cn[nH]c2)cc1 (stereo not drawn) [Example 61, 1-(4-(1H-pyrazol-4-yl)phenyl)-3-((3-fluorobenzyl)amino)pyrrolidin-2-one, TFA] | 100 to 2200
COc1ccc(F)c(NC2CCN(c3ccc(-c4cn[nH]c4)c(C(F)(F)F)c3)C2=O)c1 (single isomer, unassigned) [Example 373, 1-(4-(1H-pyrazol-4-yl)-3-(trifluoromethyl)phenyl)-3-((2-fluoro-5-methoxyphenyl)amino)pyrrolidin-2-one] | 100 to 2200
O=C1C(Nc2ccccc2)CCN1c1ccc(-c2cn[nH]c2)cc1 (stereo not drawn) [Example 58, 1-(4-(1H-pyrazol-4-yl)phenyl)-3-(phenylamino)pyrrolidin-2-one] | 10 to 100
COc1nc(N2CCC(Nc3cc(C)n(C)n3)C2=O)ccc1-c1cn[nH]c1 (racemic) [Example 271, 3-((1,5-dimethyl-1H-pyrazol-3-yl)amino)-1-(6-methoxy-5-(1H-pyrazol-4-yl)pyridin-2-yl)pyrrolidin-2-one] | 100 to 2200
COc1cccc(NC2CCN(c3ccc(-c4ccnc5[nH]ccc45)cc3)C2=O)c1 (single isomer, unassigned) [Example 80, 1-(4-(1H-pyrrolo[2,3-b]pyridin-4-yl)phenyl)-3-((3-methoxyphenyl)amino) pyrrolidin-2-one] | 100 to 2200
COc1cccc(NC2CCN(c3ccc(-c4ccnc(N)c4)cc3)C2=O)c1 (single isomer, unassigned) [Example 77, 1-(4-(2-aminopyridin-4-yl)phenyl)-3-((3-methoxyphenyl)amino)pyrrolidin-2-one] | 10 to 100
COc1cc(NC2CCN(c3ccc(-c4cn[nH]c4)c(F)c3F)C2=O)ccc1F (single isomer, unassigned) [Example 307, 1-(2,3-difluoro-4-(1H-pyrazol-4-yl)phenyl)-3-((4-fluoro-3-methoxyphenyl)amino)pyrrolidin-2-one] | 10 to 100
COc1cccc(NC2CCN(c3ccc(-c4ccnc5[nH]ccc45)c(C)n3)C2=O)c1 (single isomer, unassigned) [Example 119, 3-((3-methoxyphenyl)amino)-1-(6-methyl-5-(1H-pyrrolo[2,3-b]pyridin-4-yl)pyridin-2-yl)pyrrolidin-2-one] | 100 to 2200
COCc1cc(N2CCC(Nc3ccc(F)c(OC)c3)C2=O)ccc1-c1cn[nH]c1 (single isomer, unassigned) [Example 181, 3-((4-fluoro-3-methoxyphenyl)amino)-1-(3-(methoxymethyl)-4-(1H-pyrazol-4-yl)phenyl)pyrrolidin-2-one] | 100 to 2200
O=C1C(Cc2ccccc2F)CCN1c1ccc(-c2cn[nH]c2)cc1 (stereo not drawn) [Example 96, 1-(4-(1H-pyrazol-4-yl)phenyl)-3-(2-fluorobenzyl)pyrrolidin-2-one] | 10 to 100
COc1cc(NC2CCN(c3ccc(-c4cn[nH]c4)cn3)C2=O)ccc1F (single isomer, unassigned) [Example 83, 1-(5-(1H-pyrazol-4-yl)pyridin-2-yl)-3-((4-fluoro-3-methoxyphenyl)amino)pyrrolidin-2-one] | 10 to 100
CCOc1cccc(NC2CCN(c3ccc(-c4cn[nH]c4)c(OC)c3)C2=O)c1 (single isomer, unassigned) [Example 249, 3-((3-ethoxyphenyl)amino)-1-(3-methoxy-4-(1H-pyrazol-4-yl)phenyl)pyrrolidin-2-one] | 10 to 100
COc1cc(NC2CCN(c3ccc(-c4cn[nH]c4)c(OC(F)F)c3)C2=O)ccc1F (single isomer, unassigned) [Example 106, 1-[3-(difluoromethoxy)-4-(1H-pyrazol-4-yl)phenyl]-3-[(4-fluoro-3-methoxyphenyl)amino]pyrrolidin-2-one] | 10 to 100
COc1cccc(OC2CCN(c3ccc(-c4cn[nH]c4)cc3)C2=O)c1 (stereo not drawn) [Example 108, 1-(4-(1H-Pyrazol-4-yl)phenyl)-3-(3-methoxyphenoxy)pyrrolidin-2-one, TFA] | 10 to 100
COc1cccc(NC2CCN(c3ccc(-c4cn[nH]c4)c(C(F)F)c3)C2=O)c1 (single isomer, unassigned) [Example 176, 1-(3-(difluoromethyl)-4-(1H-pyrazol-4-yl)phenyl)-3-((3-methoxyphenyl)amino) pyrrolidin-2-one] | 10 to 100
COc1nc(N2CCC(N3CCC(F)CC3)C2=O)ccc1-c1cn[nH]c1 (racemic) [Example 296, 3-(4-fluoropiperidin-1-yl)-1-(6-methoxy-5-(1H-pyrazol-4-yl)pyridin-2-yl)pyrrolidin-2-one hydrochloride] | 10 to 100
COc1cccc(NC2CCN(c3ccc(-c4cn[nH]c4)c(C(F)F)c3)C2=O)c1 (single isomer, unassigned) [Example 175, 1-(3-(difluoromethyl)-4-(1H-pyrazol-4-yl)phenyl)-3-((3-methoxyphenyl)amino) pyrrolidin-2-one] | 100 to 2200
O=C1C(c2ccccc2Cl)CCN1c1ccc(-c2cn[nH]c2)cc1 (stereo not drawn) [Example 105, 1-(4-(1H-pyrazol-4-yl)phenyl)-3-(2-chlorophenyl)pyrrolidin-2-one] | 10 to 100

Next, values leading:

IC50 [nM] | Structure (SMILES)
10 to 100 | COc1cc(NC2CCN(c3ccc(-c4cn[nH]c4)c(C(F)F)c3)C2=O)ccc1F (single isomer, unassigned) [Example 179, 1-(3-(difluoromethyl)-4-(1H-pyrazol-4-yl)phenyl)-3-((4-fluoro-3-methoxyphenyl)amino)pyrrolidin-2-one]
10 to 100 | COc1c(F)cccc1NC1CCN(c2ccc(-c3cn[nH]c3)c(OC(F)F)c2)C1=O (single isomer, unassigned) [Example 33, 1-(3-(difluoromethoxy)-4-(1H-pyrazol-4-yl)phenyl)-3-((3-fluoro-2-methoxyphenl)amino)pyrrolidin-2-one]
10 to 100 | N#Cc1cccc(N[C@@H]2CCN(c3ccc(-c4cn[nH]c4)cc3)C2=O)c1 [Example 387, (R)-3-((1-(4-(1H-pyrazol-4-yl)phenyl)-2-oxopyrrolidin-3-yl)amino)benzonitrile]
< 10 | COc1cccc(NC2CCN(c3ccc(-c4cn[nH]c4)c(Cl)c3)C2=O)c1 (single isomer, unassigned) [Example 164, 1-(3-chloro-4-(1H-pyrazo1-4-yl)phenyl)-3 ((3-methoxyphenyl)amino)pyrrolidin-2-one]
< 10 | COc1nc(N2CCC(Nc3ccc4c(c3)OCO4)C2=O)ccc1-c1cn[nH]c1 (racemic) [Example 255, 3-(benzo[d][1,3]dioxol-5-ylamino)-1-(6-methoxy-5-(1H-pyrazol-4-yl)pyridin-2-yl)pyrrolidin-2-one]
< 10 | COc1cccc(NC2CCN(c3ccc(-c4cn[nH]c4)c(C)n3)C2=O)c1 (single isomer, unassigned) [Example 189, 3-((3-methoxyphenyl)amino)-1-(6-methyl-5-(1H-pyrazol-4-yl)pyridin-2-yl)pyrrolidin-2-one]
< 10 | COc1nc(N2CCC(Nc3cccc(C#N)c3)C2=O)ccc1-c1cn[nH]c1 (racemic) [Example 257, 3-((1-(6-methoxy-5-(1H-pyrazol-4-yl)pyridin-2-yl)-2-oxopyrrolidin-3-yl)amino)benzonitrile]
< 10 | COc1nc(N2CCC(Nc3ccc(F)c(OCC4CC4)c3)C2=O)ccc1-c1cn[nH]c1 (single isomer, unassigned) [Example 216, 3-((3-(cyclopropylmethoxy)-4-fluorophenyl)amino)-1-(6-methoxy-5-(1H-pyrazol-4-yl)pyridin-2-yl)pyrrolidin-2-one]
< 10 | COc1cc(F)cc(NC2CCN(c3ccc(-c4cn[nH]c4)nc3)C2=O)c1 (single isomer, unassigned) [Example 302, 1-(6-(1H-pyrazol-4-yl)pyridin-3-yl)-3-((3-fluoro-5-methoxyphenyl)amino)pyrrolidin-2-one]
< 10 | COc1nc(N2CCC(Nc3cccc(OC(F)F)c3)C2=O)ccc1-c1cn[nH]c1 (single isomer, unassigned) [Example 220, 3-((3-(difluoromethoxy)phenyl)amino)-1-(6-methoxy-5-(1H-pyrazol-4-yl)pyridin-2-yl)pyrrolidin-2-one]
< 10 | COc1cc(F)cc(NC2CCN(c3ccc(-c4cn[nH]c4)c(F)c3F)C2=O)c1 (single isomer, unassigned) [Example 310, 1-(2,3-difluoro-4-(1H-pyrazol-4-yl)phenyl)-3-((3-fluoro-5-methoxyphenyl)amino)pyrrolidin-2-one]
< 10 | COc1nc(N2CCC(N3CCOc4ccccc43)C2=O)ccc1-c1cn[nH]c1 (racemic) [Example 225, 3-(2H-benzo[b][1,4]oxazin-4(3H)-yl)-1-(6-methoxy-5-(1H-pyrazol-4-yl)pyridin-2-yl)pyrrolidin-2-one]
< 10 | COc1cccc(NC2CCN(c3ccc(-c4cn[nH]c4)c(OC)c3)C2=O)c1 (stereo not drawn) [Example 68, 1-(3-methoxy-4-(1H-pyrazol-4-yl)phenyl)-3-((3-methoxyphenyl)amino)pyrrolidin-2-one]
< 10 | O=C1C(Nc2cccc(F)c2)CCN1c1ccc(-c2cn[nH]c2)c(F)c1 (single isomer, unassigned) [Example 47, 1-(3-fluoro-4-(1H-pyrazol-4-yl)phenyl)-3-((3-fluorophenyl)amino)pyrrolidin-2-one]
